Patent US20150274719A1, “AMINO-SUBSTITUTED IMIDAZO[1,2-A]PYRIDINECARBOXAMIDES AND THEIR USE” (BAYER PHARMA AKTIENGESELLSCHAFT, priority 2012, published 2015)
Structures can show the parent of a compound that is named as a salt.

Target: T1, recombinant guanylate cyclase reporter cell line (Rattus norvegicus, UniProt P19686+P20595)
T1 construct: expressed in transfected cells; host or cells: recombinant reporter cell line
T1 sequence (P19686 1-690): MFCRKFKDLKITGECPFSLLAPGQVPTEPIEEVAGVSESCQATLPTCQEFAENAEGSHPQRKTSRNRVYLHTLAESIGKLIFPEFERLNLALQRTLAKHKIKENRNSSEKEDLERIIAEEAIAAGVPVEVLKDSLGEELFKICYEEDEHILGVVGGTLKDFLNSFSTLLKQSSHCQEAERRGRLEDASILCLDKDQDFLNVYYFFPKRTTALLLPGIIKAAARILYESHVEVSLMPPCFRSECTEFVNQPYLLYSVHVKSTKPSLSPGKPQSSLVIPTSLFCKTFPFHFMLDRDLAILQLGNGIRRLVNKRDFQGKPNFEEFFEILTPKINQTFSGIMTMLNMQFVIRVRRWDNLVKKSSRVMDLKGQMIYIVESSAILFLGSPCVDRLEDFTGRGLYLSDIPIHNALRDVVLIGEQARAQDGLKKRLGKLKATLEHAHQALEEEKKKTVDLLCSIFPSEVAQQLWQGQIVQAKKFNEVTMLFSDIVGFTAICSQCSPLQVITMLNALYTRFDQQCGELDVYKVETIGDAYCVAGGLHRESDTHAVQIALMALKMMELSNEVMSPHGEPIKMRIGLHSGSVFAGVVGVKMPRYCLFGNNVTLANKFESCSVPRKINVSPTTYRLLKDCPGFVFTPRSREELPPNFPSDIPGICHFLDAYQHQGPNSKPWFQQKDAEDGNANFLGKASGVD
T1 sequence (P20595 1-619): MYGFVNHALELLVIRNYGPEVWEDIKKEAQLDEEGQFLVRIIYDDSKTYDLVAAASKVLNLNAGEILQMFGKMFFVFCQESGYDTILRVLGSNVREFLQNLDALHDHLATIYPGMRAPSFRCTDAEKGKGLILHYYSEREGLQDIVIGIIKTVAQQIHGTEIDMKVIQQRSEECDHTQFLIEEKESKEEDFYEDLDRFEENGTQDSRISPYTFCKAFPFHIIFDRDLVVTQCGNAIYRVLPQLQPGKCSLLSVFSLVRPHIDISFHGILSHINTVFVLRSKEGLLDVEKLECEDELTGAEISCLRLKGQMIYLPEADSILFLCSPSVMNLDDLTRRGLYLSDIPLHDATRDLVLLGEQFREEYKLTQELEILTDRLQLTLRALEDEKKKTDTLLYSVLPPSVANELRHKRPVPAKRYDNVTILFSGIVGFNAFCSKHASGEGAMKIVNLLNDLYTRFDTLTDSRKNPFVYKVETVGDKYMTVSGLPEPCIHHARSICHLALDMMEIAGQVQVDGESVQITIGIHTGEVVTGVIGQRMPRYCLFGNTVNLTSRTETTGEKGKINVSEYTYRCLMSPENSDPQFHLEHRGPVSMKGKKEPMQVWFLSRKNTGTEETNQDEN
Test: Action on recombinant guanylate cyclase reporter cell line
Type: cell-based
Details: in some cases mean values from individual determinations
Summary of the method: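 Read-out: MEC (minimal effective concentration) in cells. Reporter line carries recombinant sGC. Some values are averages of single runs.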

SMILES | MEC (minimal effective concentration) [µM]
Cc1nc2c(OCc3c(F)cccc3F)cc(Cl)cn2c1C(=O)NCC1(N)CCCC1 [Example 42, N-[(1-aminocyclopentyl)methyl]-6-chloro-8-[(2,6-difluorobenzyl)oxy]-2-methylimidazo[1,2-a]pyridine-3-carboxamide] | 1.00
Cc1nc2c(OCC3CCCCC3)cccn2c1C(=O)NC(CN)c1ccc(F)cc1F (stereo not drawn) [Example 45, ent-N-[2-Amino-1-(2,4-difluorophenyl)ethyl]-8-(cyclohexylmethoxy)-2-methylimidazo[1,2-a]-pyridine-3-carboxamide] | 1.00
Cc1cc(OCc2c(F)cccc2F)c2nc(C)c(C(=O)NC(C)CN)n2c1 (stereo not drawn) [Example 48, ent-N-(1-Aminopropan-2-yl)-8-[(2,6-difluorobenzyl)oxy]-2,6-dimethylimidazo[1,2-a]pyridine-3-carboxamide] | 1.00
Cc1cc(OCc2c(F)cccc2F)c2nc(C)c(C(=O)NC(CN)c3ccc(F)c(F)c3)n2c1 (stereo not drawn) [Example 51, ent-N-[2-Amino-1-(3,4-difluorophenyl)ethyl]-8-[(2,6-difluorobenzyl)oxy]-2,6-dimethylimidazo-[1,2-a]pyridine-3-carboxamide] | 0.20
Cc1nc2c(OCc3c(F)cccc3F)cc(F)cn2c1C(=O)NC(CN)c1ccc(F)c(F)c1 (stereo not drawn) [Example 53, ent-N-[2-Amino-1-(3,4-difluorophenyl)ethyl]-8-[(2,6-difluorobenzyl)oxy]-6-fluoro-2-methyl-imidazo[1,2-a]pyridine-3-carboxamide] | 0.30
NCC(NC(=O)c1c(C2CC2)nc2c(OCc3c(F)cccc3F)cccn12)c1ccc(F)c(F)c1 (stereo not drawn) [Example 54, ent-N-[2-amino-1-(3,4-difluorophenyl)ethyl]-2-cyclopropyl-8-[(2,6-difluorobenzyl)oxy]-imidazo[1,2-a]pyridine-3-carboxamide] | 1.00
NCC(NC(=O)c1cnc2c(OCc3c(F)cccc3F)cccn12)c1ccc(F)c(F)c1 (stereo not drawn) [Example 55, ent-N-[2-amino-1-(3,4-difluorophenyl)ethyl]-8-[(2,6-difluorobenzyl)oxy]imidazo[1,2-a]pyridine-3-carboxamide dihydrochloride] | 2.00
Cc1nc2c(OCc3c(F)cccc3F)cccn2c1C(=O)N[C@H]1CCCNC1 [Example 60, 8-[(2,6-difluorobenzyl)oxy]-2-methyl-N-[(3S)-piperidin-3-yl]imidazo[1,2-a]pyridine-3-carboxamide dihydrochloride] | 0.30
Cc1nc2c(OCc3c(F)cccc3F)cccn2c1C(=O)N[C@H]1CCNC1 [Example 61, 8-[(2,6-Difluorobenzyl)oxy]-2-methyl-N-[(3S)-pyrrolidin-3-yl]imidazo[1,2-a]pyridine-3-carboxamide] | 3.00
CCCC[C@H](CN1CCOCC1)NC(=O)c1c(C)nc2c(OCc3c(F)cccc3F)cccn12 [Example 64, ent-8-[(2,6-Difluorobenzyl)oxy]-2-methyl-N-[(2R)-1-(morpholin-4-yl)hexan-2-yl]imidazo[1,2-a]-pyridine-3-carboxamide] | 0.30
CCCC[C@H](CN1CCCC1)NC(=O)c1c(C)nc2c(OCc3c(F)cccc3F)cccn12 [Example 66, ent-8-[(2,6-difluorobenzyl)oxy]-2-methyl-N-[(2R)-1-(pyrrolidin-1-yl)hexan-2-yl]imidazo[1,2-a]-pyridine-3-carboxamide] | 1.00
CCCC[C@H](CN1CCN(C)CC1)NC(=O)c1c(C)nc2c(OCc3c(F)cccc3F)cccn12 [Example 67, ent-8-[(2,6-difluorobenzyl)oxy]-2-methyl-N-[(2R)-1-(4-methylpiperazin-1-yl)hexan-2-yl]imidazo[1,2-a]pyridine-3-carboxamide] | 0.30
CCCC[C@H](CN(C)C)NC(=O)c1c(C)nc2c(OCc3c(F)cccc3F)cccn12 [Example 68, ent-8-[(2,6-difluorobenzyl)oxy]-N-[(2R)-1-(dimethylamino)hexan-2-yl]-2-methylimidazo[1,2-a]-pyridine-3-carboxamide] | 0.30
CCCC[C@H](CN(CC)CC)NC(=O)c1c(C)nc2c(OCc3c(F)cccc3F)cccn12 [Example 69, ent-8-[(2R)-1-(diethylamino)hexan-2-yl]-8-[(2,6-difluorobenzyl)oxy]-2-methylimidazo[1,2-a]-pyridine-3-carboxamide] | 1.00
CCCC[C@H](CNCCOC)NC(=O)c1c(C)nc2c(OCc3c(F)cccc3F)cccn12 [Example 70, ent-8-[(2,6-difluorobenzyl)oxy]-N-{(2R)-1-[(2-methoxyethyl)amino]hexan-2-yl}-2-methylimidazo[1,2-a]pyridine-3-carboxamide] | 1.00
CCN1C2CCCC1CC(NC(=O)c1c(C)nc3c(OCc4c(F)cccc4F)cccn13)C2 (stereo not shown) [Example 71, 8-[(2,6-Difluorobenzyl)oxy]-N-(9-ethyl-9-azabicyclo[3.3.1]non-3-yl)-2-methylimidazo[1,2-a]-pyridine-3-carboxamide] | 0.30
Cc1nc2c(OCc3c(F)cccc3F)cccn2c1C(=O)NCC(C)(C)N [Example 72, N-(2-Amino-2-methylpropyl)-8-[(2,6-difluorobenzyl)oxy]-2-methylimidazo[1,2-a]pyridine-3-carboxamide] | 0.30
Cc1nc2c(OCc3c(F)cccc3F)cccn2c1C(=O)NCCNc1ccc(F)cc1 [Example 79, 8-[(2,6-difluorobenzyl)oxy]-N-{2-[(4-fluoro-phenyl)amino]ethyl}-2-methylimidazo[1,2-a]-pyridine-3-carboxamide] | 1.00
Cc1nc2c(OCc3c(F)cccc3F)cccn2c1C(=O)NC1CC(C)(C)NC(C)(C)C1 [Example 82, 8-[(2,6-Difluorobenzyl)oxy]-2-methyl-N-(2,2,6,6-tetramethylpiperidin-4-yl)imidazo[1,2-a]-pyridine-3-carboxamide] | 0.20
Cc1nc2c(OCc3c(F)cccc3F)cccn2c1C(=O)NC1CC(C)(C)N(C)C(C)(C)C1 [Example 83, 8-[(2,6-difluorobenzyl)oxy]-2-methyl-N-(1,2,2,6,6-pentamethylpiperidin-4-yl)imidazo[1,2-a]pyridine-3-carboxamide] | 0.10
Cc1nc2c(OCc3c(F)cccc3F)cccn2c1C(=O)NCCN(C)C [Example 86, 8-[(2,6-difluorobenzyl)oxy]-N-[2-(dimethyl-amino)ethyl]-2-methylimidazo[1,2-a]pyridine-3-carboxamide] | 2.00
Cc1nc2c(OCc3c(F)cccc3F)cccn2c1C(=O)NCCCN(C)C [Example 87, 8-[(2,6-difluorobenzyl)oxy]-N-[3-(dimethyl-amino)propyl]-2-methylimidazo[1,2-a]-pyridine-3-carboxamide] | 1.00
Cc1nc2c(OCc3c(F)cccc3F)cccn2c1C(=O)NCCN(C(C)C)C(C)C [Example 88, 8-[(2,6-difluorobenzyl)oxy]-N-[2-(diisopropyl-amino)ethyl]-2-methylimidazo[1,2-a]pyridine-3-carboxamide] | 1.00
Cc1nc2c(OCc3c(F)cccc3F)cccn2c1C(=O)NCCN1CCOCC1 [Example 89, 8-[(2,6-difluorobenzyl)oxy]-2-methyl-N-[2-(morpholin-4-yl)ethyl]imidazo[1,2-a]pyridine-3-carboxamide] | 0.65
Cc1nc2c(OCc3c(F)cccc3F)cccn2c1C(=O)NC1CC2CCCC(C1)N2C (stereo not shown) [Example 90, 8-[(2,6-difluorobenzyl)oxy]-2-methyl-N-(9-methyl-9-azabicyclo[3.3.1]non-3-yl)imidazo[1,2-a]pyridine-3-carboxamide] | 0.10
